Source: US20240301409A1, “Chemically Modified Small Activating RNA” (RACTIGEN THERAPEUTICS, priority 2021, published 2024)
Oligonucleotides are written 5' to 3', each unit as a sugar letter and its base; * is a phosphorothioate linkage, no mark a phosphodiester; rarer units and linkages stand in square brackets, end groups in braces. Plain capitals give the bases only. m = 2'-O-methyl; r = 2'-OH (RNA); f = 2'-fluoro

What was measured:
INF-α = test: PBMC cytokine release assay, INF-α (ELISA); conditions: 10 nM, 24 hours; for immunostimulatory activity (INF-α) compared with Rag1-40, in words: PBMC
Protocol: Cells were treated with the indicated duplexes at a final concentration of 10 nM or lipopolysaccharide (LPS) as a positive control for 24 hours, respectively. The levels of INF-α and TNF-α in the cell supernatant were detected by ELISA kit. […] Data represent mean±SD of two independent experiments.
Human peripheral blood mononuclear cells (Allcells, Alameda, CA) were seeded in a 96-well microplate at a density of approximately 10×10^4 cells/well. Transfection of dsRNA was performed using RNAiMAX (Invitrogen, Carlsbad, CA) following manufacturer's instructions. Supernatants were collected 24 hours after transfection and immediately assayed for IFN-α and TNF-α production using ELISA kit (R&D Systems). Each treatment group was analyzed in triplicate.
To assess the immunostimulatory effect of chemically modified saRNAs, human peripheral blood mononuclear cells (PBMC) from healthy donors were incubated with the double-stranded saRNAs, and INF-α and TNF-α levels in the supernatant of treated cells after 24 hours were measured.

[1] = system: Rag1-40 target sequence in the 3′ UTR of firefly luciferase, COS-1 cells; test: Analysis of off-target effects (pOff-Target dual luciferase reporter in COS-1 cells); conditions: lysed 48 hours after transfection, luciferase activity
Ku-7-LG cells = test: Cellular proliferation assay (CCK8) in Ku-7-LG cells; type: cell-based, human; conditions: 10 nM, 72 hours
Protocol: Ku-7-LG cells were transfected with the indicated saRNA at 10 nM for 3 days. […] The closer the luciferase value is to the control group, the lower the probability of off-target effects of saRNA is. Control and dsCon2 were blank transfection and double-stranded scramble RNA transfection, respectively. The value of the ordinate represents the mean±SD of two repeated treatments.
(§1) After the transfection, the number of viable cells was detected with a CCK8 kit, and plotted as the percentage of the blank control treatment group. […] A transfection sample without oligonucleotide served as a blank control. Non-specific duplex (dsCon) transfected sample served as a negative control. Data are presented as mean±SD of at least two independent experiments. The values below the dashed line indicate stronger growth inhibitory activity compared to duplex Rag1-40 without chemical modification.
(§2) Human bladder cancer cells Ku-7-LG (ATCC), J82 (ATCC) and T24 (ATCC) were cultured in McCoy medium (Gibco) comprising 10% calf serum (Sigma-Aldrich) and 1% penicillin/Streptomycin (Gibco). Cells were cultured at 37° C. under 5% CO2. Ku-7-LG, J82 and T24 cells were plated into 12-well plates at 10×10^4 cells per well, transfected with the small RNA at a concentration of 10 nM (unless otherwise specified) for three days, using RNAiMax (Invitrogen, Carlsbad, CA) according to the manufacturer's instructions. Two replicate wells were set for each treatment.
(§3) Cells were plated in a 96-well plate at 2˜4×10^3 cells/well, cultured overnight, and transfected with the oligonucleotide duplexes. Three days after transfection, CCK8 (Dojindo) was used to detect cellular proliferation following manufacturer's instructions. The experimental steps are briefly described as follows: 10 μL of CCK8 solution was added to each well, incubated at 37° C. for 1 hour, and then the absorbance at 450 nm was measured using a microplate reader.
(§4) It is known that p21 induction by saRNA is that a variety of tumor suppressor factors such as p21 protein suppress the proliferation of cancer cells. To evaluate the effect of chemically modified saRNAs on the function of cancer cells, cells (Ku-7-LG and T24) were transfected with 10 nM unmodified and modified saRNAs for 72 hours, and the cellular proliferation was determined by CCK8. […] Furthermore, there was a correlation between RNA activating activity (FIGS. 7A-7B) and suppression of cellular proliferation activity (FIGS. 8A-8B). Strong p21 activators are usually also strong cytostatics.

T24 cells = test: Cellular proliferation assay (CCK8) in T24 cells, alone and combined with Mitomycin C or valrubicin; type: cell-based, human; conditions: T24 cells, 10 nM, 72 hours, CCK8
Text: as §1
T24 cells were transfected with RAG1-40-31 at concentrations of 0.1, 0.5, 1, 5, 10, 25 and 50 nM for 24 hours, and then Mitomycin C was added at concentrations of 1, 10, 100, 1000 and 10000 nM. The combined treatment was carried out with concentrations in pairs. After treatment, the cellular proliferation was detected by CCK8 kit. FIGS. 16A-16B show the relative proliferation proportion of T24 cells after the combined treatment with chemically modified saRNA RAG1-40-31 and valrubicin. […] Control and DMSO are the blank transfection control and the solvent for dilution control, respectively.
T24 cells were transfected with RAG1-40-31 at concentrations of 0.1, 0.5, 1, 5, 10, 25 and 50 nM for 24 hours, and then valrubicin at concentrations of 1, 10, 100, 1000 and 10000 nM was added. The combined treatment was carried out with concentrations in pairs. After treatment, the cellular proliferation was detected by CCK8 kit.
as §2, §3, §4

RNase A = molecular target: T1, RNase A (Bos taurus, UniProt P61823); test: saRNA stability analysis in the presence of RNase A (agarose gel); conditions: incubation 0 to 96 hours
T1 sequence (P61823 27-150): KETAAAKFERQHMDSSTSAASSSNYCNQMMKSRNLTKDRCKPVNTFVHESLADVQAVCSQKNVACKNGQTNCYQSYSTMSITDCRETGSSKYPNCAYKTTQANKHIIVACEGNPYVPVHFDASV

Substance	protein level of INF-α (INF-α; PBMC supernatant) [pg/mL]	off-target effect compared to unmodified Rag1-40, in words [1]	immunostimulatory activity (INF-α) compared with Rag1-40, in words (INF-α)	suppression of cellular proliferation, in words (Ku-7-LG cells)	suppression of cellular proliferation, in words (T24 cells)	degradation of duplex at 96 hours (RNase A)
RAG1-IS-1: RNA duplex known to have strong immunostimulatory activity, positive control: S GUCAUCACACUGAAUACCAAU (SEQ ID NO 20), AS AUUGGUAUUCAGUGUGAUGACAC (SEQ ID NO 21) (listed as RNA, chemistry not given here) [reference compound]	708					
Rag1-40-5: saRNA duplex: sense mCmCAACUCAUUCUCCAAGmUmC (SEQ ID NO 5); antisense UACUfUGGAGAAfUGAGUfUGG*fC*A (SEQ ID NO 10) (sense CCAACUCAUUCUCCAAGUC; antisense UACUUGGAGAAUGAGUUGGCA; 2'-OMe, 2'-F, phosphorothioates; modified_base (1)..(19) (1,2,18,19)=2′-O-methyl(2′-OMe); modified_base (5)..(20) (5,12,17,20)=2′-fluoro; modified_base (19)..(21) (19,20,21)=phosphorothioate (PS) backbone modification)		completely inhibited	reduced immunostimulatory activity			
Rag1-40-8: saRNA duplex: sense mCmCAACUCAUUCUCCAAGmUmC (SEQ ID NO 5); antisense fUactfUGGAGAAfUGAGfUfUGG*fC*A (SEQ ID NO 13) (sense CCAACUCAUUCUCCAAGUC; antisense UACTUGGAGAAUGAGUUGGCA; 2'-OMe, 2'-F, phosphorothioates, DNA residues; modified_base (1)..(19) (1,2,18,19)=2′-O-methyl(2′-OMe); modified_base (1)..(17) (1,2,9,13,14,17)=2′-fluoro; (1)..(21) (1,5,6,7,8,9,10,11,12,13,14,15,1,61,7,18,19,20, 21)=RNA; (2)..(4) (2,3,4)=DNA; modified_base (16)..(18) (16,17,18)=phosphorothioate (PS) backbone modification)		mitigated or similar off-target effects	reduced immunostimulatory activity	weakens the activity of the saRNA duplex to suppress cellular proliferation	weakens the activity of the saRNA duplex to suppress cellular proliferation	little or no signs of degradation
Rag1-40-9: saRNA duplex: sense fCfCAACUCAUUCUCCAAGfUfC (SEQ ID NO 14); antisense fUAfCfUfUGGAGAAfUGAGfUfUGGfCA (SEQ ID NO 6) (sense CCAACUCAUUCUCCAAGUC; antisense UACUUGGAGAAUGAGUUGGCA; 2'-F modifications; modified_base (1)..(19) (1,2,18,19)=2′-fluoro; modified_base (1)..(20) (1,3,4,5,12,16,17,20)=2′-fluoro)		mitigated or similar off-target effects	reduced immunostimulatory activity			little or no signs of degradation
Rag1-40-13: saRNA duplex: sense fCfCAACUCAUUCUCCAAGfUfC (SEQ ID NO 14); antisense UACUfUGGAGAAfUGAGUfUGG*fC*A (SEQ ID NO 10) (sense CCAACUCAUUCUCCAAGUC; antisense UACUUGGAGAAUGAGUUGGCA; 2'-F modifications, phosphorothioates; modified_base (1)..(19) (1,2,18,19)=2′-fluoro; modified_base (5)..(20) (5,12,17,20)=2′-fluoro; modified_base (19)..(21) (19,20,21)=phosphorothioate (PS) backbone modification)		mitigated or similar off-target effects	reduced immunostimulatory activity			
Rag1-40-15: saRNA duplex: sense fCfCAACUCAUUCUCCAAGfUfC (SEQ ID NO 14); antisense U*A*fCfUfUGGAGAAfUGAGfUfUGG*fC*A (SEQ ID NO 12) (sense CCAACUCAUUCUCCAAGUC; antisense UACUUGGAGAAUGAGUUGGCA; 2'-F modifications, phosphorothioates; modified_base (1)..(19) (1,2,18,19)=2′-fluoro; modified_base (2)..(21) (2,3,19,20,21)=phosphorothioate (PS) backbone modification; modified_base (3)..(20) (3,4,5,12,16,17,20)=2′-fluoro)		mitigated or similar off-target effects	reduced immunostimulatory activity			little or no signs of degradation
Rag1-40-24: saRNA duplex: sense mCmCAACUCAUUCUCCAAG*U*C (SEQ ID NO 15); antisense fUactfUGGAGAAfUGAGfUfUGG*fC*A (SEQ ID NO 13) (sense CCAACUCAUUCUCCAAGUC; antisense UACTUGGAGAAUGAGUUGGCA; 2'-OMe, 2'-F, phosphorothioates, DNA residues; modified_base (1)..(2) (1,2)=2′-O-methyl(2′-OMe); modified_base (17)..(19) (17,18,19)=phosphorothioate (PS) backbone modification; modified_base (1)..(17) (1,2,9,13,14,17)=2′-fluoro; (1)..(21) (1,5,6,7,8,9,10,11,12,13,14,15,1,61,7,18,19,20, 21)=RNA; (2)..(4) (2,3,4)=DNA; modified_base (16)..(18) (16,17,18)=phosphorothioate (PS) backbone modification)		completely inhibited		weakens the activity of the saRNA duplex to suppress cellular proliferation	weakens the activity of the saRNA duplex to suppress cellular proliferation	little or no signs of degradation
Rag1-40-27: saRNA duplex: sense fCfCAACUCAUUCUCCAAG*U*C (SEQ ID NO 16); antisense fUmAfCfUfUmGmGmAmGmAmAfUmGmAmGfUfUmGmGfCmA (SEQ ID NO 8) (sense fCfCrArArCrUrCrArUrUrCrUrCrCrArArG*rU*rC)		completely inhibited	reduced immunostimulatory activity	negatively affects proliferation suppression activity	negatively affects proliferation suppression activity	little or no signs of degradation
